Consider three compounds from BigSolDB 2.1.

As a reminder, the solubility (mole fraction) is solubility expressed as the solute's share of all molecules. For the compound `COC(=O)/C=C/c1cc(OC)c(O)c(OC)c1`, the solubility (mole fraction) came to 0.117 (in ethyl acetate, 303.15 K); 0.128 (in ethyl acetate, 307.15 K); 0.147 (in ethyl acetate, 312.15 K); 0.157 (in ethyl acetate, 317.15 K); 0.168 (in ethyl acetate, 321.15 K); 0.000292 (in n-hexane, 303.15 K). Also, the solubility (mole fraction) is, setting by setting: (in n-hexane, 307.15 K) 0.000383; (in n-hexane, 312.15 K) 0.000495; (in n-hexane, 317.15 K) 0.000743; (in n-hexane, 321.15 K) 0.000804; (in tert-amyl alcohol, 303.15 K) 0.0264; (in tert-amyl alcohol, 307.15 K) 0.0336. The compound also registered a solubility (mole fraction) (in tert-amyl alcohol, 312.15 K) of 0.0644; a solubility (mole fraction) (in tert-amyl alcohol, 317.15 K) of 0.0926; a solubility (mole fraction) (in tert-amyl alcohol, 321.15 K) of 0.14; a solubility (mole fraction) (in tert-butanol, 303.15 K) of 0.0184; a solubility (mole fraction) (in tert-butanol, 307.15 K) of 0.0234; a solubility (mole fraction) (in tert-butanol, 312.15 K) of 0.0523. This compound came in with a solubility (mole fraction) (in tert-butanol, 317.15 K) of 0.0743 and a solubility (mole fraction) (in tert-butanol, 321.15 K) of 0.0973.

Take `COC(=O)/C=C/c1ccc(O)cc1`: the solubility (mole fraction) was 0.0856 (in ethyl acetate, 303.15 K); 0.0915 (in ethyl acetate, 307.15 K); 0.0997 (in ethyl acetate, 312.15 K); 0.108 (in ethyl acetate, 317.15 K); 0.113 (in ethyl acetate, 321.15 K); 2.81e-05 (in n-hexane, 303.15 K). Besides, the solubility (mole fraction) is, setting by setting: (in n-hexane, 307.15 K) 4.38e-05; (in n-hexane, 312.15 K) 6.18e-05; (in n-hexane, 317.15 K) 8.13e-05; (in n-hexane, 321.15 K) 0.000124; (in tert-amyl alcohol, 303.15 K) 0.116; (in tert-amyl alcohol, 307.15 K) 0.126. The solubility (mole fraction) is, setting by setting: (in tert-amyl alcohol, 312.15 K) 0.154; (in tert-amyl alcohol, 317.15 K) 0.174; (in tert-amyl alcohol, 321.15 K) 0.201; (in tert-butanol, 303.15 K) 0.0977; (in tert-butanol, 307.15 K) 0.113; (in tert-butanol, 312.15 K) 0.128. Further, the solubility (mole fraction) was determined as 0.143 (in tert-butanol, 317.15 K) and 0.171 (in tert-butanol, 321.15 K).

For `COC(=O)/C=C/c1ccc(O)c(OC)c1`, the solubility (mole fraction) was determined as 0.217 (in ethyl acetate, 303.15 K); 0.247 (in ethyl acetate, 307.15 K); 0.279 (in ethyl acetate, 312.15 K); 0.305 (in ethyl acetate, 317.15 K); 0.334 (in ethyl acetate, 321.15 K); 0.00112 (in n-hexane, 303.15 K). Besides, the solubility (mole fraction) amounted to 0.00211 (in n-hexane, 307.15 K); 0.00251 (in n-hexane, 312.15 K); 0.00354 (in n-hexane, 317.15 K); 0.00416 (in n-hexane, 321.15 K); 0.215 (in tert-amyl alcohol, 303.15 K); 0.246 (in tert-amyl alcohol, 307.15 K). The solubility (mole fraction) is 0.287 (in tert-amyl alcohol, 312.15 K); 0.312 (in tert-amyl alcohol, 317.15 K); 0.342 (in tert-amyl alcohol, 321.15 K); 0.182 (in tert-butanol, 303.15 K); 0.209 (in tert-butanol, 307.15 K); 0.247 (in tert-butanol, 312.15 K). The solubility (mole fraction) worked out at 0.295 (in tert-butanol, 317.15 K) and 0.325 (in tert-butanol, 321.15 K).
